{"source": "patent US20260158102A1", "about": "“CYCLIC PEPTIDE DERIVATIVE COMPOSITION FOR TREATING OR PREVENTING NEUROPATHIC PAIN AND/OR INFLAMMATORY PAIN” (DKS Co. Ltd., priority 2022, published 2026)", "key": {"[1]": {"test_system": "STZ-induced diabetic rats", "test": "von Frey test in rat STZ-induced diabetes model", "type": "in vivo", "conditions": "for 50% withdrawal threshold by von Frey test: mean ± SE, n=10", "description": "The activity of the compound of the present disclosure was evaluated according to the following procedure.\n(§1) Compound 9 (50 mg/mL) was diluted with water for injection to obtain a 1 mg/mL administration specimen. For the specimens to be administered at 0.1 mg/mL and 0.01 mg/mL, the specimen to be administered at 1 mg/mL was diluted stepwise with water for injection. Each administration specimen was divided into PP disposable tubes every day and stored in a storehouse (freezer: MDF-MU339H-PJ, PHC Corporation) under the condition of freezing (−30° C. to −20° C., measured value: −26.4 to −24.5° C.). Preparation was performed on the day before the start of administration.\n(§2) Water for injection was added to and dissolved in Pregabalin taken out from the capsule to obtain 2 mg/mL. It was prepared before use.\n(§3) • Animal species: rat (SPF) • Strain: Crl: CD (SD) • Date of animal acquisition, gender, age in weeks, number of animals acquired, and weight range after 1 day of acquisition • First and second courses: Apr. 6, 2022, male, 7 weeks old, 35 animals, 217 to 237 g • Third and fourth courses: Apr. 13, 2022, male, 7 weeks old, 35 animals, 216 to 235 g • Source: […].\nAmong the animals having a 50% withdrawal threshold of 8 g or more in the von Frey test measured during the preliminary breeding period, two animals from young animals with animal numbers were assigned to non-diabetes-induced animals, and the remaining animals were assigned to diabetes-induced animals.\nAmong the diabetes-induced animals, animals having a blood glucose level of 300 mg/dL or less were excluded from the grouping subjects, and were grouped using a computer program (IBUKI, Nihon Bioresearch Center, Inc.) so that the body weight and the average blood glucose level of each group were approximately equal. That is, the animals for the first and second courses and the third and fourth courses were grouped into one non-diabetes animal for Group 1, and 5 […] animals for Groups 2 to 6. Note that the grouping was performed so that there were 4 examples in Group 1 and 10 examples in each of Groups 2 to 6.\n• Administration method: Using a syringe (Terumo Corporation) equipped with a 25 G winged injection needle (Terumo Corporation), tail vein administration was performed. Note that a 0.75 mmol/L CAB solution was administered to a non-diabetes-induced control group.\n(§4) • Dose volume: calculated at 2 mL/kg based on the body weight on the day of administration. • Number of times of administration: once • Day of administration: 7 days before the day of starting administration of the test substance.\n• Administration method: Using a syringe (Terumo Corporation) equipped with a 25 G winged injection needle (Terumo Corporation), tail vein administration was performed. Note that physiological saline was administered to the non-diabetes control group and the diabetes control group.\n(§5) • Dose volume: calculated at 1 mL/kg based on the body weight on the day of administration. • Number of times of administration: 9 times • Interval of administration: once every 3 days (evaluation was performed on the day after administration) • Day of starting administration: day 8 of STZ administration (day of STZ administration is counted as day 1).\n• Administration method: Using a polypropylene disposable syringe (Terumo Corporation) equipped with a metal oral zonde for a rat (Fuchigami kikai Ltd.), forced oral administration was performed.\n• Dose volume: calculated at 10 mL/kg based on the body weight on the day of administration. • Number of times of administration: Administration was performed once on the day of evaluation of neuropathic pain, twice in total, and on the other days of administration, a vehicle for a control substance (water for injection) was orally administered. […]"}, "[2]": {"test": "Body weight measurement in rat STZ-induced diabetes model", "type": "in vivo", "conditions": "mean ± SE, in g (unit assumed)", "description": "as §1, §2, §3, §4, §5\n• Dose volume: calculated at 10 mL/kg based on the body weight on the day of administration. • Number of times of administration: Administration was performed once on the day of evaluation of neuropathic pain, twice in total, and on the other days of administration, a vehicle for a control substance (water for injection) was orally administered.\n• Measurement was performed every day after the day of STZ administration.\nThe mean and standard error of each group were calculated for the 50% withdrawal threshold, body weight, and blood glucose level.\nThe body weight was an integer.\nNo significant difference test of body weight and blood glucose levels was performed."}}}
{"smiles": "CC[C@@]1(C)Oc2cc(ccc2O)C[C@H](NC)C(=O)N[C@@H](C(C)C)C(=O)N[C@@H]1C(=O)N[C@@H](CC(=O)O)C(=O)O", "note": "[Compound 9]", "values": [{"measurement": "50% withdrawal threshold by von Frey test", "setting": "[1]; 0.01 mg/kg iv group, Pre: before STZ administration", "value": "14.6 ± 0.4", "unit": "g"}, {"measurement": "change in the 50% withdrawal threshold (von Frey test)", "setting": "[1]; 0.01 mg/kg iv group, as compared with the non-diabetes control group (so in the source)", "value": "no significant change"}, {"measurement": "50% withdrawal threshold by von Frey test", "setting": "[1]; 0.01 mg/kg iv once every 3 days from day 8, day 14 of STZ administration", "value": "5.7 ± 0.5", "unit": "g"}, {"measurement": "50% withdrawal threshold by von Frey test", "setting": "[1]; 0.01 mg/kg iv once every 3 days from day 8, day 28 of STZ administration", "value": "3.8 ± 0.2", "unit": "g"}, {"measurement": "50% withdrawal threshold by von Frey test", "setting": "[1]; 0.1 mg/kg iv group, Pre: before STZ administration", "value": "13.1 ± 0.8", "unit": "g"}, {"measurement": "change in the 50% withdrawal threshold (von Frey test)", "setting": "[1]; 0.1 mg/kg iv group, as compared with the non-diabetes control group (so in the source)", "value": "no significant change"}, {"measurement": "50% withdrawal threshold by von Frey test", "setting": "[1]; 0.1 mg/kg iv once every 3 days from day 8, day 14 of STZ administration", "value": "5.7 ± 0.5", "unit": "g"}, {"measurement": "50% withdrawal threshold by von Frey test", "setting": "[1]; 0.1 mg/kg iv once every 3 days from day 8, day 28 of STZ administration", "value": "4.8 ± 0.4", "unit": "g"}, {"measurement": "50% withdrawal threshold by von Frey test", "setting": "[1]; 1 mg/kg iv group, Pre: before STZ administration", "value": "13.5 ± 0.7", "unit": "g"}, {"measurement": "change in the 50% withdrawal threshold (von Frey test)", "setting": "[1]; 1 mg/kg iv group, day 28 after STZ administration, as compared with the diabetes control group", "value": "significant increase"}, {"measurement": "50% withdrawal threshold by von Frey test", "setting": "[1]; 1 mg/kg iv once every 3 days from day 8, day 14 of STZ administration", "value": "5.8 ± 0.5", "unit": "g"}, {"measurement": "50% withdrawal threshold by von Frey test", "setting": "[1]; 1 mg/kg iv once every 3 days from day 8, day 28 of STZ administration", "value": "6.7 ± 0.7 † g"}, {"measurement": "effect on diabetic peripheral neuropathic pain", "setting": "[1]; STZ-induced diabetic rats, conclusion of the discussion", "value": "suppressing effect"}, {"measurement": "Body weight", "setting": "[2]; 0.01 mg/kg iv, day 1 of STZ administration", "value": "295 ± 5"}, {"measurement": "Body weight", "setting": "[2]; 0.01 mg/kg iv, day 2 of STZ administration", "value": "281 ± 4"}, {"measurement": "Body weight", "setting": "[2]; 0.01 mg/kg iv, day 3 of STZ administration", "value": "277 ± 4"}, {"measurement": "Body weight", "setting": "[2]; 0.01 mg/kg iv, day 4 of STZ administration", "value": "280 ± 5"}, {"measurement": "Body weight", "setting": "[2]; 0.01 mg/kg iv, day 5 of STZ administration", "value": "282 ± 5"}, {"measurement": "Body weight", "setting": "[2]; 0.01 mg/kg iv, day 6 of STZ administration", "value": "287 ± 5"}, {"measurement": "Body weight", "setting": "[2]; 0.01 mg/kg iv, day 7 of STZ administration", "value": "291 ± 5"}, {"measurement": "Body weight", "setting": "[2]; 0.01 mg/kg iv, day 8 of STZ administration", "value": "290 ± 6"}, {"measurement": "Body weight", "setting": "[2]; 0.01 mg/kg iv, day 9 of STZ administration", "value": "292 ± 5"}, {"measurement": "Body weight", "setting": "[2]; 0.01 mg/kg iv, day 10 of STZ administration", "value": "297 ± 6"}, {"measurement": "Body weight", "setting": "[2]; 0.01 mg/kg iv, day 11 of STZ administration", "value": "298 ± 6"}, {"measurement": "Body weight", "setting": "[2]; 0.01 mg/kg iv, day 12 of STZ administration", "value": "302 ± 7"}, {"measurement": "Body weight", "setting": "[2]; 0.01 mg/kg iv, day 13 of STZ administration", "value": "304 ± 6"}, {"measurement": "Body weight", "setting": "[2]; 0.01 mg/kg iv, day 14 of STZ administration", "value": "306 ± 7"}, {"measurement": "Body weight", "setting": "[2]; 0.01 mg/kg iv, day 15 of STZ administration", "value": "306 ± 8"}, {"measurement": "Body weight", "setting": "[2]; 0.01 mg/kg iv, day 16 of STZ administration", "value": "307 ± 8"}, {"measurement": "Body weight", "setting": "[2]; 0.01 mg/kg iv, day 17 of STZ administration", "value": "309 ± 8"}, {"measurement": "Body weight", "setting": "[2]; 0.01 mg/kg iv, day 18 of STZ administration", "value": "311 ± 8"}, {"measurement": "Body weight", "setting": "[2]; 0.01 mg/kg iv, day 19 of STZ administration", "value": "309 ± 8"}, {"measurement": "Body weight", "setting": "[2]; 0.01 mg/kg iv, day 20 of STZ administration", "value": "312 ± 8"}, {"measurement": "Body weight", "setting": "[2]; 0.01 mg/kg iv, day 21 of STZ administration", "value": "312 ± 8"}, {"measurement": "Body weight", "setting": "[2]; 0.01 mg/kg iv, day 22 of STZ administration", "value": "311 ± 9"}, {"measurement": "Body weight", "setting": "[2]; 0.01 mg/kg iv, day 23 of STZ administration", "value": "312 ± 9"}, {"measurement": "Body weight", "setting": "[2]; 0.01 mg/kg iv, day 24 of STZ administration", "value": "310 ± 9"}, {"measurement": "Body weight", "setting": "[2]; 0.01 mg/kg iv, day 25 of STZ administration", "value": "312 ± 10"}, {"measurement": "Body weight", "setting": "[2]; 0.01 mg/kg iv, day 26 of STZ administration", "value": "315 ± 10"}, {"measurement": "Body weight", "setting": "[2]; 0.01 mg/kg iv, day 27 of STZ administration", "value": "308 ± 10"}, {"measurement": "Body weight", "setting": "[2]; 0.01 mg/kg iv, day 28 of STZ administration", "value": "312 ± 10"}, {"measurement": "Body weight", "setting": "[2]; 0.01 mg/kg iv, day 29 of STZ administration", "value": "311 ± 11"}, {"measurement": "Body weight", "setting": "[2]; 0.01 mg/kg iv, day 30 of STZ administration", "value": "313 ± 11"}, {"measurement": "Body weight", "setting": "[2]; 0.01 mg/kg iv, day 31 of STZ administration", "value": "309 ± 11"}, {"measurement": "Body weight", "setting": "[2]; 0.01 mg/kg iv, day 32 of STZ administration", "value": "310 ± 12"}, {"measurement": "Body weight", "setting": "[2]; 0.01 mg/kg iv, day 33 of STZ administration", "value": "308 ± 12"}, {"measurement": "Body weight", "setting": "[2]; 0.01 mg/kg iv, day 34 of STZ administration", "value": "313 ± 12"}, {"measurement": "Body weight", "setting": "[2]; 0.1 mg/kg iv, day 1 of STZ administration", "value": "293 ± 4"}, {"measurement": "Body weight", "setting": "[2]; 0.1 mg/kg iv, day 2 of STZ administration", "value": "279 ± 5"}, {"measurement": "Body weight", "setting": "[2]; 0.1 mg/kg iv, day 3 of STZ administration", "value": "275 ± 5"}, {"measurement": "Body weight", "setting": "[2]; 0.1 mg/kg iv, day 4 of STZ administration", "value": "277 ± 6"}, {"measurement": "Body weight", "setting": "[2]; 0.1 mg/kg iv, day 5 of STZ administration", "value": "280 ± 5"}, {"measurement": "Body weight", "setting": "[2]; 0.1 mg/kg iv, day 6 of STZ administration", "value": "285 ± 5"}, {"measurement": "Body weight", "setting": "[2]; 0.1 mg/kg iv, day 7 of STZ administration", "value": "289 ± 5"}, {"measurement": "Body weight", "setting": "[2]; 0.1 mg/kg iv, day 8 of STZ administration", "value": "287 ± 5"}, {"measurement": "Body weight", "setting": "[2]; 0.1 mg/kg iv, day 9 of STZ administration", "value": "292 ± 5"}]}
